We go through 2 compounds from patent US7108865B2, “Controlled-release dosage forms of azithromycin” (Pfizer Inc, priority 1994, dated 2006).

For this data set the following is noted: pH 7. An excerpt: A third class of azithromycin sustained-release dosage forms includes the osmotic delivery devices or “osmotic pumps” as they are known in the art. Osmotic pumps comprise a core containing an osmotically effective composition surrounded by a semipermeable membrane. The term “semipermeable” in this context means that water can pass through the membrane, but solutes dissolved in water cannot. In use, when placed in an aqueous environment, the device imbibes water due to the osmotic activity of the core composition. […] The osmotically effective composition includes water-soluble species, which generate a colloidal osmotic pressure, and water-swellable polymers.

On to Azithromycin fumarate, for which the “osmotic pressure corresponding to the solubility” value is “about 3 atmospheres” and the solubility entry is “about 100 mg/ml”.
`CC[C@H]1OC(=O)[C@H](C)[C@@H](O[C@H]2C[C@@](C)(OC)[C@@H](O)[C@H](C)O2)[C@H](C)[C@@H](O[C@@H]2O[C@H](C)C[C@H](N(C)C)[C@H]2O)[C@](C)(O)C[C@@H](C)CN(C)[C@H](C)[C@@H](O)[C@]1(C)O` [azithromycin dihydrate]: the solubility result is “much lower”.
